Assay results reported in US20140100165A1, “PREVENTION OF KIDNEY INJURY OR DISEASE” (University of Florida Research Foundation, priority 2012, published 2014).
Like-named read-outs stand apart in the source and are kept apart here.

Assays:
[1] = test system: Acute Kidney Injury (AKI) in patients undergoing cardiac surgery; test: Example 1: prevention of AKI by different dosage regimes of AP214 in patients undergoing cardiac surgery; type: in vivo, human
Method: Each of 12 patients undergoing cardiac surgery (the AP214 group) was dosed with 600 μg/kg AP214: 200 μg/kg at skin incision, 200 μg/kg at cross clamp release, and 200 μg/kg 6-hour after cross clamp release. Each dosage was provided over a period of 10 minutes. The placebo group included 13 patients undergoing cardiac surgery without AP214 infusion.
Objectives • trial objective was to assess the effect of AP214 on • 1) changes in serum creatinine, cystatin-C and carbamade, • 2) on eGFR and • 3) on the development of post-surgical acute kidney injury (AKI) • AKI also assessed (post-hoc analysis) by AKIN and RIFLE
Three different definitions of AKI were tested: • 1) 3 patients in the AP214 group developed AKI, in contrast to 7 patients in the placebo group who developed AKI. AKI is defined as in the CS005 protocol: • An absolute increase in serum creatinine of more than or equal to 26.4 μmol/l (0.3 mg/dl) or • A percentage increase in serum creatinine of more than or equal to 50% (1.5-fold from baseline) from Day 0-14 and/or • Urine output less than 0.5 mL/kg per hour for more than 6 hours. • 2) AKI according to the AKIN score as presented in FIG. 3a, and • 3) AKI according to the RIFLE score as presented in FIG. 3b.

[2] = test system: Acute Kidney Injury (AKI) in patients undergoing cardiac surgery on cardiopulmonary bypass; type: in vivo; settings: for kidney function as measured by estimated GFR: seven day post-operative period
From the text: The CS007 trial was designed to study both short and long term efficacy signals (FIG. 5).
Primary Aims • Safety: Safety and tolerability vs. placebo • Efficacy: Max post-operative change in absolute values of SCr compared to baseline within the first 7 days after surgery or until discharge from hospital, whichever comes first vs. placebo.
Secondary aims • Composite: • Assess the proportion of patients reaching the composite endpoint of death, need for RRT or a 25% reduction in renal function over a 90 day post-operative period vs. placebo. • AKIN: Assess post-operative incidence of AKI within 48 hours post-surgery • RIFLE: Assess post-operative incidence of AKI within first 7 days post-surgery. • SCr: Changes between surgery and postoperative day 7. • GFR: Changes at day 90 compared to baseline. • eGFR: Changes between surgery and postoperative day 7
Each dosage was provided over a period of 10 minutes. As used throughout this disclosure and unless specified otherwise, “μg/kg” refers to […] AP214 per kg bodyweight of the patient being treated.
Moreover, in the same double-blind study described in this Example, patients undergoing cardiac surgery on cardiopulmonary bypass (CPB) were randomized to placebo (PBO; n=26), AP214 given at either 600 μg/kg (n=25), or 800 μg/kg (n=26), divided into 3 bolus infusions at the predetermined intervals as described above. AKI was determined according to AKIN and RIFLE scores.

[3] = Example 3: evaluation of rate of infusion of AP214 (adverse events, tolerability); type: in vivo, human
Method: To establish a suitable rate of infusion of AP214 a set of patient trials were performed.
AP214 isotonic solution single ascending doses (25, 50 and 100 μg/kg) for intravenous infusion administered over 10 minutes, or placebo (saline infusion).
AP214 isotonic solution single doses (100 μg/kg over 1 minute; 100 μg/kg over 30 seconds; 200 μg/kg over 30 seconds) for intravenous infusion.

[4] = test system: complete warm ischemia in the kidney; settings: pigs; 200 μg/kg, 10 ml i.v. bolus during 1 minute, seven doses; cited from earlier work
[5] = 600 μg/kg bodyweight (3×200 μg/kg) i.v. over 10 minutes each, vs placebo
[6] = 600 μg/kg bodyweight, vs placebo

## CSCC[C@H](NC(=O)[C@H](CO)NC(=O)[C@H](Cc1ccc(O)cc1)NC(=O)[C@H](CO)NC(=O)[C@H](CCCCN)NC(=O)[C@H](CCCCN)NC(=O)[C@H](CCCCN)NC(=O)[C@H](CCCCN)NC(=O)[C@H](CCCCN)NC(=O)[C@H](CCCCN)NC(C)=O)C(=O)N[C@@H](CCC(=O)O)C(=O)N[C@@H](Cc1c[nH]cn1)C(=O)N[C@@H](Cc1ccccc1)C(=O)N[C@@H](CCCNC(=N)N)C(=O)N[C@@H](Cc1c[nH]c2ccccc12)C(=O)NCC(=O)N[C@@H](CCCCN)C(=O)N1CCC[C@H]1C(=O)N[C@H](C(N)=O)C(C)C [AP214, Acetyl-Lysyl-L-lysyl-L-lysyl-L-lysyl-L-lysyl-L-lysyl-L-seryl-L-tyrosyl-L-seryl-L-methionyl-Lglutamyl-L-histidyl-L-phenylalanyl-L-arginyl-L-tryptophanyl-glycyl-L-lysyl-L-prolyl-L-valine amide]
[1]; 150 μg/kg bodyweight (3×50 μg/kg), same dosing scheme
  prevention of AKI as compared to placebo: showed no prevention of AKI
[1]; 600 μg/kg (3×200 μg/kg), AP214 group of 12 patients, 7 of 13 in placebo group
  patients who developed AKI (AKI as defined in the CS005 protocol): 3 patients
[1]; 600 μg/kg bodyweight (3×200 μg/kg)
  development of AKI according to the RIFLE and AKIN scores: demonstrated prevention in the development of AKI
[1]; [5]
  decrease in eGFR: prevented a decrease in eGFR
  increase in serum creatinine: prevented
[1]; [6]
  increase in carbamide: prevented
  increase in cystatin C: prevented an increase in cystatin C
[2]; 600 μg/kg
  population distribution of extreme serum creatinine values (highest quartile): showed a reduction in serum creatinine values at the highest quartile
  kidney function as measured by estimated GFR: increased kidney function
[2]; 800 μg/kg
  population distribution of extreme serum creatinine values (highest quartile): showed a reduction in serum creatinine values at the highest quartile
  kidney function as measured by estimated GFR: increased kidney function
[2]; 800 μg/kg, Day 0-7
  degree of acute kidney injury compared to placebo: displayed lesser degrees of acute kidney injury
[2]; 800 μg/kg, combined CABG and valve surgery, multiple valve surgery, chronic kidney disease and CABG (or valve surgery)
  incidence of AKI compared with PBO, by surgery type: numerically lower incidence of AKI
[3]; 100 μg/kg over 10 minutes i.v. (slower infusion rate)
  adverse events: did not show these adverse effects
[3]; 200 μg/kg over 30 seconds i.v.
  adverse events versus 100 μg/kg over 30 sec and 1 minute: more adverse events
[3]; Group 2 (n=6), short infusion times
  subjects with erythema: 6 subjects
[3]; Group 2 (n=6): 100 μg/kg over 1 minute, 100 μg/kg over 30 seconds, 200 μg/kg over 30 seconds, i.v.
  adverse events: A large number of adverse events were reported
[4]
  renoprotective effect: provides a renoprotective effect
